Counter-ions that a name gives are not always drawn.

The results in this text go back to patent publication US12624004B2 (Fudan University, priority 2019, dated 2026).

The target of experiment [1] is T1, κ opioid receptor (Homo sapiens, UniProt P41145).
T1 construct: expressed in transfected cells; host or cells: CHO cells (membranes)
In words: Competition binding assay on membranes of CHO cells expressing κ opioid receptor, [3H]-labeled ligand. As to conditions: for Ki: read-out: κOR Ki; for inhibition at 10 µM: Table 1-1, 10 μM concentration of compound. The method, boiled down: (§1)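 CHO membranes (20–30 μg protein) incubated with [3H]-labeled ligand at 1–2 nM and test compounds, 30 min at 30° C; nonspecific binding with 1 μM corresponding ligand. Filtered on GF/C, washed with 50 mM Tris-HCl pH 7.4, scintillation-counted. IC50 converted to Ki by Ki=IC50/(1+[L]/Kd).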

Experiment [2] relates to Female mice. In words: In vivo hot plate method analgesia test. As to conditions: intraperitoneal, 5 mg/kg dose; for % MPE (5 mg/kg): Table 2-2, hot plate 55° C.; for Maximum percentage effective analgesic (% MPE): Table 1-2, hot plate 55° C. The method, boiled down: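 Female mice (~20 g) on a 55° C hot plate, hindpaw response latency as pain threshold (pre-screen 5–30 s, 60 s cut-off). Latencies at 15, 30, 60 and 120 min after intraperitoneal dosing. %MPE = (post−pre latency)/(60−pre)×100, ED50 derived from %MPE.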
A general note: Hot-plate and tail-flick tests time the reaction to a heat stimulus.

For experiment [3], the target named is T2, μ opioid receptor (Homo sapiens, UniProt P35372).
T2 construct: expressed in transfected cells; host or cells: CHO cells (membranes)
In words: Competition binding assay on membranes of CHO cells expressing μ opioid receptor, [3H]-labeled ligand. As to conditions: for Ki: Table 2-1, read-out: μOR Ki; for inhibition at 10 µM: Table 1-1, 10 μM concentration of compound, mean ± SD of three measurements, read-out: μOR Binding rate (%). The method, boiled down:
as §1

For experiment [4], the target named is T3, δ opioid receptor (Homo sapiens, UniProt P41143).
T3 construct: expressed in transfected cells; host or cells: CHO cells (membranes)
In words: Competition binding assay on membranes of CHO cells expressing δ opioid receptor, [3H]-labeled ligand. As to conditions: 0.5 h, read-out: δOR Binding rate (%); for inhibition at 1 µM: Table 2-1, 1 μM concentration of compound; for inhibition at 10 µM: Table 1-1, 10 μM concentration of compound. A digest of the protocol:
as §1

Setting [5] is: 0.5 h, read-out: κOR Binding rate (%).

Take `COc1cccc(C2(O)CCN(S(C)(=O)=O)CC2CN(C)C)c1.Cl` (stereo not drawn) [FWBH23, 3-((Dimethylamino)methyl)-4-(3-methoxyphenyl)-1-(methylsulfonyl)piperidin-4-ol hydrochloride]: the inhibition at 1 µM came to 14.3 ± 3.33% in experiment [1] (0.5 h, Table 2-1, 1 μM concentration of compound, read-out: κOR Binding rate (%)) and 16 ± 1.99% in experiment [4]. Besides, the “% MPE (5 mg/kg)” value in experiment [2] is 16.87%. The Ki (in general, a dissociation constant, usually derived from enzyme kinetics or from competition with a known ligand) in experiment [3] amounted to 192 ± 15 nM.
As to `COc1cccc(C2(O)CCN(S(=O)(=O)C[C@@]34CC[C@@H](CC3=O)C4(C)C)CC2CN(C)C)c1` (stereo partly drawn) [FWBH24, (1R,4S)-1-(((3-((Dimethylamino)methyl)-4-hydroxy-4-(3-methoxyphenyl)piperidin-1-yl)sulfonyl)methyl)-7,7-Dimethylbicyclo[2.2.1]heptan-2-one hydrochloride], the Ki in experiment [1] (Table 2-1) is 433 ± 15.3 nM; in experiment [3], 65.1 ± 5.36 nM. Also, the “% MPE (5 mg/kg)” value in experiment [2] is 54.81%. Moreover, in experiment [4], the inhibition at 1 µM is 11.1 ± 1.3%.
As for `COc1cccc(C2(O)CCN(S(=O)(=O)C[C@]34CC[C@H](CC3=O)C4(C)C)CC2CN(C)C)c1` (stereo partly drawn) [FWBH25, (1S,4R)-1-(((3-((Dimethylamino)methyl)-4-hydroxy-4-(3-methoxyphenyl)piperidin-1-yl)sulfonyl)methyl)-7,7-dimethylbicyclo[2.2.1]heptan-2-one hydrochloride], the Ki in experiment [1] (Table 2-1) came to 54 ± 20.9 nM; in experiment [3], 50.8 ± 1.56 nM. Further, the “% MPE (5 mg/kg)” value in experiment [2] was found to be 6.03%. Further, the inhibition at 1 µM in experiment [4] is 14.3 ± 8.63%.
Consider `COc1cccc(C2(O)CCN(S(=O)(=O)C[C@@]34CC[C@@H](CC3O)C4(C)C)CC2CN(C)C)c1` (stereo partly drawn) [FWBH26, 3-((Dimethylamino)methyl)-1-((((1R,4S)-2-hydroxy-7,7-dimethylbicyclo[2.2.1]hept-1-yl)methyl)sulfonic acid acyl)-4-(3-methoxyphenyl)piperidin-4-ol hydrochlorid, hydrochloride], for which the Ki was 8.2 ± 3.1 nM in experiment [1] (Table 2-1) and 11.5 ± 1.6 nM in experiment [3]. The “% MPE (5 mg/kg)” value in experiment [2] was 44.91%. Moreover, the inhibition at 1 µM in experiment [4] was 9.15 ± 1.92%.
For `COc1cccc(C2(O)CCN(S(=O)(=O)C[C@]34CC[C@H](CC3O)C4(C)C)CC2CN(C)C)c1` (stereo partly drawn) [FWBH27, 3-((Dimethylamino)methyl)-1-((((1S,4R)-2-hydroxy-7,7-dimethylbicyclo[2.2.1]hept-1-yl)methyl)sulfonyl)-4-(3-methoxyphenyl)piperidin-4-ol hydrochloride] the same measures were 27.7 ± 3.9 nM, 32.5 ± 3.3 nM, 12.21% and 24.8 ± 0.77%.
Take `COc1cccc(C2(O)CCC(N(C)S(=O)(=O)c3ccccc3)CC2CN(C)C)c1.Cl` (stereo not drawn) [N-(3-((Dimethylamino)methyl)-4-hydroxy-4-(3-methoxyphenyl)cyclohexyl)-N-methylbenzenesulfonamide hydrochloride]: the inhibition at 10 µM in experiment [1] (setting [5]) worked out at 46.7 ± 9.2%; in experiment [3] it was 86.7 ± 1.6%; in experiment [4], 0%. For the same molecule, the “Maximum percentage effective analgesic (% MPE)” value in experiment [2] was determined as 15.8%.
In the same order, the values of `COc1cccc(C2(O)CCC(N(C)S(=O)(=O)c3cccs3)CC2CN(C)C)c1.Cl` (stereo not drawn) [N-(3-((Dimethylamino)methyl)-4-hydroxy-4-(3-methoxyphenyl)cyclohexyl)-N-methylthiophene-2-sulfonamide hydrochloride] are 51.4 ± 7.5%, 62 ± 6.8%, 0% and 14.3%.
Turning to `COc1cccc(C2(O)CCC(NS(=O)(=O)c3cccs3)CC2CN(C)C)c1.Cl` (stereo not drawn) [N-(3-((Dimethylamino)methyl)-4-hydroxy-4-(3-methoxyphenyl)cyclohexyl)thiophene-2-sulfonamide hydrochloride], the values for the inhibition at 10 µM in experiment [1] (setting [5]), in experiment [3] and in experiment [4] were 37 ± 6.8%, 57 ± 4.8% and 0%, respectively. For the same molecule, the “Maximum percentage effective analgesic (% MPE)” value in experiment [2] worked out at 19.5%.
In the same order, the values of `COc1cccc(C2(O)CCC(N(Cc3ccccc3)S(=O)(=O)c3cccs3)CC2CN(C)C)c1.Cl` (stereo not drawn) [N-Benzyl-N-(3-((dimethylamino)methyl)-4-hydroxy-4-(3-methoxyphenyl)cyclohexyl)thiophene-2-sulfonamide hydrochloride] are 71.2 ± 2.7%, 68.4 ± 3.4%, 0% and 22.8%.
